From US20150238441A1, “Modulation of Branched Amino Acid Concentrations to Treat Metabolic Diseases” (UNIVERSITY OF ROCHESTER, priority 2012, published 2015)

Key:
C57BL/6 mice = experiment: Plasma metabolite levels in mice after a single 1 mg/kg oral gavage dose of NTBC (GC/MS and LC/MS/MS); type: in vivo; conditions: single aqueous 1 mg/kg dose by oral gavage, plasma 6 h following dosing, male C57BL/6 mice
Procedure: For example, six male C57BL/6 mice (20-25 gm, 8-9 weeks age) were administered a single aqueous 1 mg/kg dose of NTBC by oral gavage. Plasma samples were taken 6 h following dosing. […] We conclude that NTBC can be used to reduce plasma BCAA levels in mice. It should be noted that an early study reported that plasma BCAA levels were unaffected after dosing rats with 10 mg/kg NTBC for 11 weeks (Lock et al., 1996).
The dosing solutions were prepared the day of study dosing, approximately one hour prior to dosing. Compound 1 is nitisinone (also referred to herein as “NTBC”).
54 C56BL/6 mice were housed for at least 3 days prior to dosing and were fully acclimated at study start. All mice were ad libitum fed throughout the study. Water was given ad libitum throughout the holding and study periods. Body weight was measured prior to dosing. Dosing for Group 2 and 3 occurred once on the day of study.
Blood collection (approximately 600 μL) was into pre-chilled (0-4° C.) K3-EDTA containing polypropylene blood collection tubes. After blood collection, blood samples were maintained chilled (2-6° C.) and centrifuged within 30 minutes. […]
Samples were extracted and split into equal parts for analysis on GC/MS and LC/MS/MS platforms. Proprietary software was used to match ions to a library of standards for metabolite identification and for metabolite quantitation by peak area integration.

patients = patients taking the drug; cited from earlier work

In the case of `O=C1CCCC(=O)C1C(=O)c1ccc(C(F)(F)F)cc1[N+](=O)[O-]` [Compound 1, nitisinone], the “reduction of plasma levels of valine, isoleucine and leucine (BCAAs)” value (C57BL/6 mice) is reported as “greater than 25%”.

In the case of `CN(C)C(=N)N=C(N)N` [metformin], the “patients who suffer gastrointestinal side effects” value (patients) is listed as “More than 60%”.
